Columns and labels:
Assay type in all cases: cell-based
[1] = tested on: Phaffia rhodozyma ATCC96594; assay: Effect of the squalene synthase inhibitor on the cell growth of Phaffia rhodozyma (Example 1)
Procedure: Phaffia rhodozyma ATCC96594 (redeposited under the accession No. ATCC 74438 on Apr. 8, 1998 pursuant to the Budapest Treaty) was inoculated into YPD medium (DIFCO, Detroit, U.S.A., 10 mL in tube) and cultivated by shaking at 20° C. for 2 days. 0.5 mL of the culture was inoculated into fresh YPD medium (10 mL in tube) containing 30 g/L of glucose and 0, 0.2, 0.5, 1.0, 2.0, 5.0, 10.0, and 20.0, μg/mL, respectively, of [3-(3-allyl-biphenyl-4-yl-oxy)-propyl]-isopropyl-amine, and cultivated by shaking at 20° C. for 5 days. An aliquot of the culture was withdrawn occasionally during the cultivation, and optical density at 660 nm was measured by using UV-1200 photometer (Shimadzu Corp., Kyoto, Japan) for analysis of the cell growth.

[2] = tested on: Phaffia rhodozyma ATCC96594; assay: Effect of the squalene synthase inhibitor on astaxanthin production by Phaffia rhodozyma (Example 2); details: for Astaxanthin content (relative values): relative to Day 7 without inhibitor = 100
Procedure: Phaffia rhodozyma ATCC96594 (redeposited under the accession No. ATCC 74438 on Apr. 8, 1998 pursuant to the Budapest Treaty) was inoculated into YPD medium as in Example 1 and cultivated by shaking at 20° C. for 2 days. 2.5 ml of the culture were inoculated into fresh YPD medium (50 mL in flask) containing 22 g/L of glucose and 0, 0.5, 1.0, 2.0, and 5.0, μg/mL, respectively, of [3-(3-allyl-biphenyl-4-yloxy)-propyl]-isopropyl-amine, and cultivated by shaking at 20° C. for 7 days. On Day 2 of the cultivation, 50 g/L of glucose was added to the culture. Addition of the inhibitor in the middle of the cultivation was also tested. An aliquot of the culture was withdrawn at Day 4 and Day 7 of the cultivation, and optical density at 660 nm (by using the same method described in Example 1) and astaxanthin content in the culture were measured. For analysis of the content of astaxanthin, the withdrawn broth was mixed with a solvent mixture (ethyl alcohol, hexane and ethyl acetate) and carotenoids were extracted from the cells of Phaffia rhodozyma by vigorous shaking with glass beads. After extraction, disrupted cells and glass beads were removed by centrifugation and the resultant supernatant was analyzed by HPLC for the astaxanthin content. The HPLC conditions used were as follows: [table] A reference sample of astaxanthin was obtained from Hoffmann La-Roche (Basel, Switzerland).

[3] = tested on: Phaffia rhodozyma ATCC96594; assay: Cell growth of Phaffia rhodozyma during astaxanthin production culture (Example 2)
Procedure: An aliquot of the culture was withdrawn occasionally during the cultivation, and optical density at 660 nm was measured by using UV-1200 photometer (Shimadzu Corp., Kyoto, Japan) for analysis of the cell growth. Phaffia rhodozyma ATCC96594 (redeposited under the accession No. ATCC 74438 on Apr. 8, 1998 pursuant to the Budapest Treaty) was inoculated into YPD medium as in Example 1 and cultivated by shaking at 20° C. for 2 days. 2.5 ml of the culture were inoculated into fresh YPD medium (50 mL in flask) containing 22 g/L of glucose and 0, 0.5, 1.0, 2.0, and 5.0, μg/mL, respectively, of [3-(3-allyl-biphenyl-4-yloxy)-propyl]-isopropyl-amine, and cultivated by shaking at 20° C. for 7 days. On Day 2 of the cultivation, 50 g/L of glucose was added to the culture. Addition of the inhibitor in the middle of the cultivation was also tested. An aliquot of the culture was withdrawn at Day 4 and Day 7 of the cultivation, and optical density at 660 nm (by using the same method described in Example 1) and astaxanthin content in the culture were measured.

[4] = 5.0 μg/mL inhibitor added at Day 2 of the cultivation, Day 4
[5] = 5.0 μg/mL inhibitor added at Day 2 of the cultivation, Day 7
[6] = 5.0 μg/mL inhibitor from start, Day 4
[7] = 5.0 μg/mL inhibitor from start, Day 7

For `C=CCc1cc(-c2ccccc2)ccc1OCCCNC(C)C` [[3-(3-allyl-biphenyl-4-yloxy)-propyl]-isopropyl-amine], the “Cell growth (OD at 660 nm)” value ([1]; 0.2 μg/mL inhibitor, Day 1) was 4.5, the “Cell growth (OD at 660 nm)” value ([1]; 0.2 μg/mL inhibitor, Day 2) was 16.7 and the “Cell growth (OD at 660 nm)” value ([1]; 0.2 μg/mL inhibitor, Day 3) was 20.1. For the same compound, the “Cell growth (OD at 660 nm)” value ([1]; 0.2 μg/mL inhibitor, Day 5) was 19.3, the “Cell growth (OD at 660 nm)” value ([1]; 0.5 μg/mL inhibitor, Day 1) was 4.4 and the “Cell growth (OD at 660 nm)” value ([1]; 0.5 μg/mL inhibitor, Day 2) was 15.6. For the same compound, the “Cell growth (OD at 660 nm)” value ([1]; 0.5 μg/mL inhibitor, Day 3) was 20.4, the “Cell growth (OD at 660 nm)” value ([1]; 0.5 μg/mL inhibitor, Day 5) was 19.4 and the “Cell growth (OD at 660 nm)” value ([1]; 1.0 μg/mL inhibitor, Day 1) was 4.0. The “Cell growth (OD at 660 nm)” value ([1]; 1.0 μg/mL inhibitor, Day 2) was 15.0, the “Cell growth (OD at 660 nm)” value ([1]; 1.0 μg/mL inhibitor, Day 3) was 20.0 and the “Cell growth (OD at 660 nm)” value ([1]; 1.0 μg/mL inhibitor, Day 5) was 19.5. For the same compound, the “Cell growth (OD at 660 nm)” value ([1]; 2.0 μg/mL inhibitor, Day 1) was 3.6, the “Cell growth (OD at 660 nm)” value ([1]; 2.0 μg/mL inhibitor, Day 2) was 15.0 and the “Cell growth (OD at 660 nm)” value ([1]; 2.0 μg/mL inhibitor, Day 3) was 19.5. For the same compound, the “Cell growth (OD at 660 nm)” value ([1]; 2.0 μg/mL inhibitor, Day 5) was 19.0, the “Cell growth (OD at 660 nm)” value ([1]; 5.0 μg/mL inhibitor, Day 1) was 2.9 and the “Cell growth (OD at 660 nm)” value ([1]; 5.0 μg/mL inhibitor, Day 2) was 12.3. The “Cell growth (OD at 660 nm)” value ([1]; 5.0 μg/mL inhibitor, Day 3) was 18.8, the “Cell growth (OD at 660 nm)” value ([1]; 5.0 μg/mL inhibitor, Day 5) was 18.0 and the “Cell growth (OD at 660 nm)” value ([1]; 10.0 μg/mL inhibitor, Day 1) was 2.0. For the same compound, the “Cell growth (OD at 660 nm)” value ([1]; 10.0 μg/mL inhibitor, Day 2) was 5.6, the “Cell growth (OD at 660 nm)” value ([1]; 10.0 μg/mL inhibitor, Day 3) was 14.7 and the “Cell growth (OD at 660 nm)” value ([1]; 10.0 μg/mL inhibitor, Day 5) was 16.9. For the same compound, the “Cell growth (OD at 660 nm)” value ([1]; 20.0 μg/mL inhibitor, Day 1) was 1.2, the “Cell growth (OD at 660 nm)” value ([1]; 20.0 μg/mL inhibitor, Day 2) was 1.7 and the “Cell growth (OD at 660 nm)” value ([1]; 20.0 μg/mL inhibitor, Day 3) was 2.7. For the same compound, the “Cell growth (OD at 660 nm)” value ([1]; 20.0 μg/mL inhibitor, Day 5) was 7.0, the inhibition at 5 µg/mL ([1]; Phaffia rhodozyma, ATCC96594, 48 h, 5.0 μg/mL inhibitor, Day 2) was roughly 23% and the “cell growth (effect in words)” value ([1]; concentration not higher than 2.0 μg/mL) was “not affected”. The “Astaxanthin content (relative values)” value ([2]; 0.5 μg/mL inhibitor, Day 4) was 75, the “Astaxanthin content (relative values)” value ([2]; 0.5 μg/mL inhibitor, Day 7) was 114 and the “Astaxanthin content (relative values)” value ([2]; 1.0 μg/mL inhibitor, Day 4) was 77. The “Astaxanthin content (relative values)” value ([2]; 1.0 μg/mL inhibitor, Day 7) was 118, the “Astaxanthin content (relative values)” value ([2]; 2.0 μg/mL inhibitor, Day 4) was 75 and the “Astaxanthin content (relative values)” value ([2]; 2.0 μg/mL inhibitor, Day 7) was 125. For the same compound, the “Astaxanthin content (relative values)” value [2, 4] was 84, the “Astaxanthin content (relative values)” value [2, 5] was 131 and the “Astaxanthin content (relative values)” value [2, 6] was 67. For the same compound, the “Astaxanthin content (relative values)” value [2, 7] was 129, the “Astaxanthin production (effect in words)” value ([2]; all conditions tested (0.5-5.0 μg/mL, from start or added at Day 2)) was “enhanced” and the “Cell growth (OD at 660 nm)” value ([3]; 0.5 μg/mL inhibitor, Day 4) was 39.6. For the same compound, the “Cell growth (OD at 660 nm)” value ([3]; 0.5 μg/mL inhibitor, Day 7) was 39.8, the “Cell growth (OD at 660 nm)” value ([3]; 1.0 μg/mL inhibitor, Day 4) was 40.3 and the “Cell growth (OD at 660 nm)” value ([3]; 1.0 μg/mL inhibitor, Day 7) was 39.8. The “Cell growth (OD at 660 nm)” value ([3]; 2.0 μg/mL inhibitor, Day 4) was 38.2, the “Cell growth (OD at 660 nm)” value ([3]; 2.0 μg/mL inhibitor, Day 7) was 39.3 and the “Cell growth (OD at 660 nm)” value [3, 4] was 37.4. The “Cell growth (OD at 660 nm)” value [3, 5] was 37.9, the “Cell growth (OD at 660 nm)” value [3, 6] was 40.2 and the “Cell growth (OD at 660 nm)” value [3, 7] was 39.5.

From patent US7687246B2, “Process for producing carotenoids” (DSM IP Assets B. V., priority 2002, dated 2010)
